Assay results: ChEMBL document CHEMBL1134610, “Flavonolignan and flavone inhibitors of a Staphylococcus aureus multidrug resistance pump: structure-activity relationships” (2001)
Active and inactive are the calls of the source. No cut-off for these calls is given here.

Assays:
Staphylococcus aureus [1] = assay: Minimum inhibitory concentration, that inhibits growth of Staphylococcus aureus in the presence of subinhibitory (30 ug/mL) Berberine; assay type: functional
Staphylococcus aureus [2] = assay: Minimum inhibitory concentration, that inhibits growth of Staphylococcus aureus in the presence of subinhibitory (30 ug/mL) Berberine; Inactive; assay type: functional, organism-based
Staphylococcus aureus [3] = assay: Minimum inhibitory concentration, that inhibits growth of Staphylococcus aureus in the presence of subinhibitory (30 ug/mL) Berberine Inactive; assay type: functional, organism-based

| Structure (SMILES) | MIC (Staphylococcus aureus [1]) [µg/mL] | IA (Staphylococcus aureus [2]) | other results |
| --- | --- | --- | --- |
| COc1cc([C@H]2Oc3cc(-c4cc(=O)c5c(OC(C)=O)cc(OC(C)=O)cc5o4)ccc3O[C@@H]2COC(C)=O)ccc1OC(C)=O | 0.1 |  |  |
| COc1cc([C@H]2Oc3cc(-c4cc(=O)c5c(O)cc(O)cc5o4)cc(OC)c3O[C@@H]2CO)ccc1O | 2 |  |  |
| COc1cc([C@H]2Oc3cc([C@H]4Oc5cc(O)cc(O)c5C(=O)[C@@H]4O)ccc3O[C@@H]2CO)ccc1O [SILYBIN A] | 12.5 |  |  |
| CCOc1ccc(-c2cc(=O)c3ccccc3o2)cc1 | 1.6 |  |  |
| CC(=O)Oc1cc(OC(C)=O)c2c(=O)cc(-c3ccc(OC(C)=O)c(OC(C)=O)c3)oc2c1 |  | inactive |  |
| C=CCOc1ccc(-c2cc(=O)c3ccccc3o2)cc1 | 6.3 |  |  |
| O=c1cc(-c2ccc3c(c2)O[C@H](c2ccc(O)cc2)[C@@H](CO)O3)oc2cc(O)cc(O)c12 |  | inactive |  |
| COc1ccc(-c2cc(=O)c3ccccc3o2)cc1 [4'-METHOXYFLAVONE] | 6.3 |  |  |
| O=c1cc(-c2ccc(O)cc2)oc2c(O)c(O)ccc12 |  | inactive |  |
| CCCOc1ccc(-c2cc(=O)c3ccccc3o2)cc1 | 0.4 |  |  |
| COc1cc(OC)c2c(=O)cc(-c3ccccc3)oc2c1 [CHRYSIN DIMETHYL ETHER] | 25 |  |  |
| COc1cc([C@@H]2Oc3ccc4c(=O)cc(-c5ccccc5)oc4c3O[C@H]2CO)ccc1O | 1.9 |  |  |
| O=c1cc(-c2ccccc2)oc2c(O)c(O)ccc12 |  | inactive |  |
| COc1cc([C@H]2Oc3ccc(-c4cc(=O)c5c(O)cc(O)cc5o4)cc3O[C@@H]2CO)cc(OC)c1O | 7.8 |  |  |
| COc1ccc(-c2cc(=O)c3c(O)cc(O)cc3o2)cc1O [DIOSMETIN] | 15 |  |  |
| CCCCCCCCCOc1ccc(-c2cc(=O)c3ccccc3o2)cc1 |  | inactive |  |
| COc1cc([C@H]2Oc3cc(-c4cc(=O)c5ccc(O)cc5o4)ccc3O[C@@H]2CO)ccc1O | 0.8 |  |  |
| COc1cc([C@@H]2Oc3ccc4c(=O)cc(-c5ccc(O)cc5)oc4c3O[C@H]2CO)ccc1O | 0.6 |  |  |
| COc1cc([C@H]2Oc3cc(-c4oc5cc(O)cc(O)c5c(=O)c4O)ccc3O[C@@H]2CO)ccc1O |  | inactive |  |
| O=c1cc(-c2ccc(OCc3ccccc3)cc2)oc2ccccc12 |  | inactive |  |

| Structure (SMILES) | MIC (Staphylococcus aureus [1]) [µg/mL] | IA (Staphylococcus aureus [2]) | other results |
| --- | --- | --- | --- |
| COc1cc([C@H]2Oc3cc(-c4oc5cc(OC(C)=O)cc(OC(C)=O)c5c(=O)c4OC(C)=O)ccc3O[C@@H]2COC(C)=O)ccc1OC(C)=O |  |  | IA (Staphylococcus aureus [3]): inactive |
| COc1cc([C@H]2Oc3cc(-c4oc5cc(O)ccc5c(=O)c4O)ccc3O[C@@H]2CO)ccc1O | 163 |  |  |
| COc1ccc(-c2cc(=O)c3ccccc3o2)cc1OC [3',4'-DIMETHOXYFLAVONE] | 6.3 |  |  |
| O=c1cc(-c2ccccc2)oc2cc(O)cc(O)c12 [CHRYSIN] | 25 |  |  |
| COc1cc([C@H]2Oc3cc([C@@H]4CC(=O)c5c(O)cc(O)cc5O4)ccc3O[C@@H]2CO)ccc1O | 3.1 |  |  |
| COc1cc([C@H]2Oc3cc(-c4cc(=O)c5c(O)cc(O)cc5o4)ccc3O[C@@H]2CO)cc(OC)c1O | 8 |  |  |
| O=c1cc(-c2ccc(O)cc2)oc2ccccc12 |  | inactive |  |
| COc1cc(OC)c2c(=O)cc(-c3ccc(OC)c(OC)c3)oc2c1 |  | inactive |  |
| COc1cc([C@H]2Oc3cc(-c4cc(=O)c5ccc(OC(C)=O)cc5o4)ccc3O[C@@H]2COC(C)=O)ccc1OC(C)=O | 1.6 |  |  |
| COc1cc([C@H]2Oc3ccc(-c4cc(=O)c5c(O)cc(O)cc5o4)cc3O[C@@H]2CO)ccc1O | 3.1 |  |  |
| O=c1cc(-c2ccc(OCCO)cc2)oc2ccccc12 | 25 |  |  |
| CC(C)Oc1ccc(-c2cc(=O)c3ccccc3o2)cc1 | 1.9 |  |  |
| O=c1c(O)c(-c2ccc(O)c(O)c2)oc2cc(O)cc(O)c12 |  | inactive |  |
| O=c1cc(-c2ccc(O)c(O)c2)oc2cc(O)ccc12 |  | inactive |  |
| COc1cc([C@H]2Oc3cc(-c4cc(=O)c5c(O)cc(O)cc5o4)ccc3O[C@@H]2CO)ccc1O [HYDNOCARPIN] | 0.1 |  |  |
| COc1cc([C@H]2Oc3cc([C@@H]4CC(=O)c5c(OC(C)=O)cc(OC(C)=O)cc5O4)ccc3O[C@@H]2COC(C)=O)ccc1OC(C)=O | 1.6 |  |  |
| COc1cc([C@H]2Oc3cc([C@@H]4CC(=O)c5c(O)cc(O)cc5O4)cc(OC)c3O[C@@H]2CO)ccc1O | 1.9 |  |  |
| O=c1cc(-c2ccc(O)c(O)c2)oc2cc(O)cc(O)c12 |  | inactive |  |
| CC(=O)Oc1ccc2c(=O)cc(-c3ccc(OC(C)=O)c(OC(C)=O)c3)oc2c1 |  | inactive |  |
| COc1cc([C@H]2Oc3cc(-c4cc(=O)c5ccccc5o4)ccc3O[C@@H]2CO)ccc1O | 0.08 |  |  |
